Measured values from patent US20260014227A1, “DESLORELIN USE IN CHEMICAL CASTRATION OF A NON-HUMAN MAMMAL RELATED TO PK/PD INTERACTION” (priority 2022, published 2026).
“And” between values parts separate entries of the source, which are not always exact repeats. Equal entries are not always repeated.

Tests used:
[1] = in vivo
Procedure: Samples were collected from 10 intact male cats treated with Suprelorin® 4.7 implant. Samples (based on a plasma volume of 150 μL, treated with K2-EDTA as anticoagulant) were analyzed by a LC-MS/MS method after a solid extraction phase using μElution Oasis® WCX plates. The compound (13C, 15N)-Leu (7)-deslorelin was used as a standard. The calibration range was 4 pg/mL-2000 pg/mL.

[2] = system: male cats; assay: Cat field studies 1 and 2: suppression of fertility, reversibility, behaviour, safety (Example 12); format: in vivo
Excerpt: The efficacy and safety of the re-implantation was followed-up for these supplementary 12 months, i.e. for a total of 24 months.
The observation schedule was as follows: • Study 1: V1: Day −14 to −7; V2: Day 0; V3: 1.5 months±3 days; V4: 3 months±5 days, V5: 6 months±5 days, V6: 9 months±5 days; V7: 12 months #5 days; • Study 2: V8: 12 months±3 days; V9: 13.5 months±3 days; V10: 15 months±5 days; V11: 18 months±5 days; V12: 21 months±5 days; V13: 24 months±5 days.
Regarding the enrolment criteria, in both studies the criteria were as the following: • Domestic Cats • Age >3 MONTHS old or >15 MONTHS in Study 2 • Intact Indoor males • Client-owned (including shelter cats/rehomed by foster families)
In these studies the following primary endpoints were measured: • For Study 1: the suppression of fertility (Testosterone≤0.10 ng/ml* from V4 until V7*-3 to 12 months) • Study 2: the suppression of fertility (Testosterone≤0.10 ng/mL*from V8 until V13 (12 to 24 months) and the time to reversion effect. […]

[3] = parameters: species or system cat; conditions: in vivo
Procedure: • study period: D0-560 (18 months)· • n=20 adults, sexually mature intact male cats • blinded, randomized • Suprelorin® group: n=16=>4.7 mg Suprelorin® SC, neck • Control group: n=4=>0.5 ml saline SC, neck
Blood samples were collected from 16 healthy, intact male cats that had received a deslorelin implant. Samples were analyzed using a validated liquid chromatography coupled to tandem mass spectrometry (LC-MS/MS) method after solid extraction using Oasis® WCX uElution plate. […] Concentrations measured below the lower limit of quantification (LLOQ) of 4 pg/mL were reported as BLQ (Below the Limit of Quantification).
Non-compartmental pharmacokinetic analysis of individual deslorelin concentrations in feline plasma was performed using Phoenix® software (WinNonlin 8.0, NLME 1.6, Certara L. P., Pharsight, St. Louis, MO, USA) to estimate the pharmacokinetic parameters of deslorelin.

[4] = system: cat; assay: Safety study in cat, high dose; format: in vivo
[5] = dog, in vivo
[6] = in vivo; format: in vivo, dog; conditions: male, dog, in vivo, 4.7 mg
[7] = system: testosterone, LH and FSH; assay: in vivo; format: in vivo, dog; conditions: assessed graphically
[8] = system: intact male cats; assay: Testicular size by calipers (Example 7); format: in vivo, cat; conditions: treated cats
[9] = system: male dogs; conditions: cited from earlier work
[10] = in vivo; conditions: male, dog, 4.7 mg
[11] = system: prepubertal bitches; conditions: cited from earlier work
[12] = system: intact male cats; assay: PK/PD preclinical study in 15-week-old male cats: penile spines, behaviour, puberty, reversal (Example 13); format: in vivo, cat; conditions: treated at 15 weeks of age
Excerpt: On D14, the three spare cats were removed from the study. Five+3 female cats (Group 3), pubescent at study start, were included in the study solely to assess the reproductive behavior of male cats. They were not treated with the implant. • Duration: 18 Study Months post-injection (PI) (D502/Week 72, i.e., 16.5 calendar months)

[13] = system: prepubertal female dogs; assay: Delay of puberty onset in prepubertal female dogs (Example 14); format: in vivo, dog
Excerpt: The aim of this study was to evaluate the delay of puberty onset in prepubertal female dogs. As known the puberty begins with the setting up of several parameters: • Increasing number of receptors in central nervous system (CNS) and gonads • Desensitization of hypothalamus/pituitary towards estrogens • Ripening of the gonads and the secondary sexual organs • Follicle ripening, spermatogenesis

[14] = system: testosterone; assay: Correlation between deslorelin and testosterone concentration (Example 4); format: in vivo, cat; conditions: 16 male cats, 4.7 mg implant; assessed graphically
Procedure: The serum concentration of testosterone was measured according to the protocol detailed in example 2, point 2.1.
The plasmatic concentration of deslorelin was measured according to the protocol detailed in example 1, point 1.1.

CCNC(=O)[C@@H]1CCCN1C(=O)[C@H](CCCN=C(N)N)NC(=O)[C@H](CC(C)C)NC(=O)[C@@H](Cc1c[nH]c2ccccc12)NC(=O)[C@H](Cc1ccc(O)cc1)NC(=O)[C@H](CO)NC(=O)[C@H](Cc1c[nH]c2ccccc12)NC(=O)[C@H](Cc1cnc[nH]1)NC(=O)[C@@H]1CCC(=O)N1 [deslorelin]
Time deslorelin remains in the blood [1]: up to 497 days
Duration of effective chemical castration ([2]; male cats): at least 12 months
Onset of efficacy in behavioral reduction ([2]; sexual behaviors): 7 to 31 days
Time deslorelin remains present in the blood [3]: up to 560 days
Safety findings [4]: neither serious adverse events nor live threatening events
Study day until which plasma deslorelin was quantifiable [5]: 441
level at 5376 h [6]: 12 ± 10.4 pg/mL
Deslorelin concentration below which testosterone/LH/FSH concentrations started to increase [7]: 12 pg/mL and < 12 pg/mL
Effect on testicular volume [8]: induced a decrease in testicular volume
Presence of deslorelin ([9]; dog, in vivo): 2.5 months
Duration of observed effect ([9]; dogs): at least 6 months
Persistent pharmacological effect by plasma testosterone ([9]; following administration): at least 12 months
level at 10584 h [10]: 2 pg/mL
Delay of puberty ([11]; prepubertal bitch): at least 4.5 months
Progesterone (P4), mean ([11]; prepubertal bitches): 0.6 ± 0.2 ng/mL
Duration of delay of puberty onset [12]: at least 1 year
Findings in prepubertal female dogs ([13]; with 1 implant): no disturbance of body development, the vulva size was normal, but delayed epiphyseal closure
Findings in prepubertal female dogs ([13]; with 3 implants every 4.5 Mo): vulva stayed juvenile and the effect was comparable to prepubertal castration
Deslorelin concentration below which testosterone started to increase [14]: < 12 pg/mL
